From US20250099431A1, “GLP-1R MODULATING COMPOUNDS” (priority 2020, published 2025)

How the values were obtained:
GLP-1R = GLP-1R (Homo sapiens (Human), UniProt P43220); experiment: GLP-1R activation: cAMP increase in CHO cells stably expressing GLP-1R; assay type: cell-based; settings: cAMP increase, 10 point dose response, 30 minutes incubation at 37° C., read-out: EC50
Method: GLP-1R activation by a compound of the present disclosure was quantified by measuring cAMP increase in CHO cells stably expressing GLP-1R (MultiSpan product #C1267-1a). […] The cells were then incubated overnight at 37° C., 5% CO2. […] 1% BSA (Rockland Immunochemicals product #BSA-1000)). Following the medium change, the cells were incubated for 1 hour at 37° C., 5% CO2. The tested GLP-1 compound was added to the cells in a 10 point dose response followed by a 30 minutes incubation at 37° C., 5% CO2. cAMP concentration increase was then detected using Cisbio's cAMP Gs Dynamic Kit (product #62AM4PEC) according to the manufacturer's protocol. The response was plotted against the log of the agonist concentration and fitted to a sigmoidal equation to determine the EC50.

[1] = Microsomal stability (liver microsomal assay, mixed cofactors); predicted hepatic clearance; assay type: in vitro ADME; settings: liver microsomes 1.0 mg protein/mL (+UDPGA +NADPH), 1 μM analyte, 37° C.; scaled with human liver weight and hepatic blood flow 1.3 L/hr/kg
Method: Metabolic stability of compounds was assessed using human or rat liver microsomal assays (Corning). In these assays, 10 nL of each analyte at a concentration of 1 mM in 100% DMSO was dispensed into a well of a polypropylene plates using the Echo 550 acoustic liquid dispenser (Labcyte®). Each plate contained 384 wells with a single analyte in each well.
A solution of human (Corning® Gentest™ Human Mixed Pooled Microsomes or rat (Corning® Gentest™ Rat [Sprague-Dawley] Pooled Liver Microsomes) liver microsomes at 2 mg/ml in 100 mM K2HPO4/KH2PO4 at pH 7. 4 was combined with alamethicin from Trichoderma viride (Sigma-Aldrich) 0.0225 mg/ml. The mixture was incubated on ice for 15 minutes. 5 μL of this mixture was added to individual wells following a 15 minute incubation at room temperature and supplemented with 5 μL NADPH Regenerating Solution of cofactors (Corning® Gentest™ UGT Reaction Mix) containing 100 mM K2HPO4/KH2PO4 at pH 7.4, 2.6 mM NADP+, 6.6 mM glucose-6-phosphate, 6.6 mM MgCl2, 0.8 U/mL glucose-6-phosphate dehydrogenase, 0.1 mM sodium citrate, and 6.8 mM uridine diphosphate-glucuronic acid. The final concentration of each analyte compound at the beginning of the reaction was 1 μM. The reactions were incubated at 37° C. and samples were collected at time points of 0, 5, 15, 30, 40, 50, 60, and 70 minutes for further analysis. Background data were collected using reactions without analyte compounds.
Upon collection of the sample time points, samples were quenched with 30 μL of a solution of 72% acetonitrile, 8% methanol, 0.1% formic acid, 19.9% water, and internal standard (IS). Reaction plates were spun in a centrifuge at speed of 4,000 rcf for 30 minutes at 4° C., following a dilution of the 10 μL quenched reaction into 40 μL de-ionized water, yielding assay plates.
Assay plates were analyzed using solid-state extraction coupled with quadrupole time-of-flight mass spectrometer, using Agilent QToF 6530 RapidFire 360 system, with C4 type A solid state cartridges. Analysis was performed in either positive or negative ionization modes. Mobile phases contained 0.1% formic acid in water for loading analytes onto solid state extraction cartridges and 0.1% formic acid in acetonitrile for elution into a mass spectrometer in positive ionization mode, or 0.1% acetic acid in water for loading and 0.1% acetic acid in acetonitrile for extraction in negative ionization mode. Peak-area ratios of integrated counts for individual compounds to IS were plotted as semi-logarithmic chart of log vs time. The initial linear portion of decay was fitted to a linear regression equation to derive the half-time of analyte decay.
Pharmacological parameters for an analyte compound metabolism were calculated using the following equations: […]
wherein concentration refers to the protein concentration (mg/ml) in the reaction.
This scales the in vitro intrinsic clearance up to the value that would be predicted for the entire mass of liver tissue (but with no restriction by blood flow). The value depends upon the size of the liver (species-dependent) and the yield of microsomal protein as appropriate (assumed to be species-independent).
Hepatic clearance will depend upon the inter-relationship of intrinsic clearance and hepatic blood flow and was predicted from in vitro data using a variety of approaches.
The hepatic extraction is reported as the predicted clearance expressed as a proportion of hepatic blood flow.

Chain of GLP-1R (P43220 24-463): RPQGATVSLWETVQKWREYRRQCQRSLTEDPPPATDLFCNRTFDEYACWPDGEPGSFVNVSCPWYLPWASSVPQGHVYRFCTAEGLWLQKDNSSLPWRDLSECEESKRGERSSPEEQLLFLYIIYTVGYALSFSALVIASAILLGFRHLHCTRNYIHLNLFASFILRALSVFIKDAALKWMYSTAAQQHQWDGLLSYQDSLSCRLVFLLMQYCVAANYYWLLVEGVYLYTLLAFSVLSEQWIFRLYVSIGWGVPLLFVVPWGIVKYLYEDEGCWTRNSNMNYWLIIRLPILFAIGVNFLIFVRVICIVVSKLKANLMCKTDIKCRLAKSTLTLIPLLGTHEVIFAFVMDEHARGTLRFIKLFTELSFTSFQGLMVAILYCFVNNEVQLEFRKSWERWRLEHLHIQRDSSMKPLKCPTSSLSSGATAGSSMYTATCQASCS

| EC50 (GLP-1R) [nM] | Predicted Hepatic Clearance (Pred. Cl.) [1] [mL/min/kg] | SMILES |
| --- | --- | --- |
| 219 | 4.83 | COCCn1c(Cc2ccc(-c3cccc4c3OC(c3ccc(C#N)cc3)O4)cc2F)nc2ccc(C(=O)O)cc21 (centres unmarked) [Example 6, 2-(4-(2-(4-cyanophenyl)benzo[d][1, 3]dioxol-4-yl)-2-fluorobenzyl)-1-(2-methoxyethyl)-1H-benzo[d]imidazole-6-carboxylic acid] |
| 530 | 7.5 | COCCn1c(Cc2ccc(-c3cccc4c3OC(c3ccccc3)C4)cc2F)nc2ccc(C(=O)O)cc21 (centres unmarked) [Example 7, 2-(2-fluoro-4-(2-phenyl-2,3-dihydrobenzofuran-7-yl)benzyl)-1-(2-methoxyethyl)-1H-benzo[d]imidazole-6-carboxylic acid] |
| 78 | 7.83 | COCCn1c(Cc2ccc(-c3cccc4c3OC(C)(c3ccc(Cl)cc3F)O4)s2)nc2ccc(C(=O)O)cc21 (centres unmarked) [Example 8, 2-((5-(2-(4-chloro-2-fluorophenyl)-2-methylbenzo[d][1, 3]dioxol-4-yl)thiophen-2-yl)methyl)-1-(2-methoxyethyl)-1H-benzo[d]imidazole-6-carboxylic acid] |
| 8.6 | 2.5 | CC1(c2ccc(Cl)cc2F)Oc2cccc(-c3cc(F)c(Cc4nc5c(F)cc(C(=O)O)cc5n4CC4(CC(N)=O)CC4)c(F)c3)c2O1 (centres unmarked) [Example 9, 1-((1-(2-amino-2-oxoethyl)cyclopro-pyl)methyl)-2-(4-(2-(4-chloro-2-fluorophenyl)-2-methylbenzo[d][1, 3]dioxol-4-yl)-2,6-difluorobenzyl)-4-fluoro-1H-benzo[d]imidazole-6-carboxylic acid] |
| 130 | 12.7 | COCCn1c(Cc2c(F)cc(-c3cccc4c3OC(CCC(=O)O)(c3ccc(Cl)cc3)N4)cc2F)nc2ccc(C(=O)O)cc21 (centres unmarked) [Example 10, 2-(4-(2-(2-carboxyethyl)-2-(4-chlorophenyl)-2,3-dihydrobenzo[d]oxazol-7-yl)-2,6-difluorobenzyl)-1-(2-methoxyethyl)-1H-benzo[d]imidazole-6-carboxylic acid] |
| 2.4 | 4 | CC1(c2ccc(Cl)cn2)Oc2cccc(-c3cc(F)c(Cc4nc5ccc(C(=O)O)cc5n4CC4(CF)CC4)c(F)c3)c2O1 (centres unmarked) [Example 12, 2-(4-(2-(5-chloropyridin-2-yl)-2-methylbenzo[d][1, 3]dioxol-4-yl)-2,6-difluorobenzyl)-1-((1-(fluoromethyl)cyclo-propyl)methyl)-1H-benzo[d]imidazole-6-carboxylic acid] |
| 0.41 | <1.83 | CC1(c2ccc(Cl)cc2F)Oc2cccc(-c3cc(F)c(Cc4nc5c(F)cc(C(=O)O)cc5n4CC4(CC#N)CC4)c(F)c3)c2O1 (centres unmarked) [Example 13, 2-(4-(2-(4-chloro-2-fluorophenyl)-2-methylbenzo[d][1, 3]dioxol-4-yl)-2,6-difluorobenzyl)-1-((1-(cyanomethyl)cyclo-propyl)methyl)-4-fluoro-1H-benzo[d]imidazole-6-carboxylic acid] |
| 4.5 | 2.5 | CC1(c2ccc(Cl)cn2)Oc2cccc(-c3cnc(Cc4nc5ccc(C(=O)O)cc5n4C[C@@H]4CCO4)c(F)c3)c2O1 (stereo partly drawn) [Example 14, 2-((5-(2-(5-chloropyridin-2-yl)-2-methylbenzo[d][1, 3]dioxol-4-yl)-3-fluoropyridin-2-yl)methyl)-1-(((S)-oxetan-2-yl)methyl)-1H-benzo[d]imidazole-6-carboxylic acid] |
| 0.015 | 4.5 | CC1(c2ccc(Cl)cc2F)Oc2cccc(-c3ccc(Cc4nc5ccc(C(=O)O)cc5n4C[C@@H]4CCO4)cc3F)c2O1 (stereo partly drawn) [Example 15, 2-(4-(2-(4-chloro-2-fluorophenyl)-2-methylbenzo[d][1, 3]dioxol-4-yl)-3-fluorobenzyl)-1-(((S)-oxetan-2-yl)methyl)-1H-benzo[d]imidazole-6-carboxylic acid] |
| 6920 | 9 | COCCn1c(Cc2c(F)cc(-c3cccc4c3OC3(c5ccc(Cl)cc5)CCCN43)cc2F)nc2ccc(C(=O)O)cc21 (centres unmarked) [Example 16, 2-(4-(3a-(4-chlorophenyl)-1,2,3,3a-tetrahydrobenzo[d]pyrrolo[2,1-b]oxazol-5-yl)-2,6-difluorobenzyl)-1-(2-methoxyethyl)-1H-benzo[d]imidazole-6-carboxylic acid] |
| 10000 | 7.33 | COCCn1c(Cc2c(F)cc(-c3cccc4c3OC3(c5ccc(Cl)cc5)CCC(=O)N43)cc2F)nc2ccc(C(=O)O)cc21 (centres unmarked) [Example 17, 2-(4-(3a-(4-chlorophenyl)-1-oxo-1,2,3,3a-tetrahydrobenzo[d]pyrrolo[2,1-b]oxazol-5-yl)-2,6-difluorobenzyl)-1-(2-methoxyethyl)-1H-benzo[d]imidazole-6-carboxylic acid] |
| 0.86 | <1.83 | CC1(c2ccc(Cl)cc2F)Oc2cccc(-c3cc(F)c(Cc4nc5ccc(C(=O)O)nc5n4CC4(CF)CC4)c(F)c3)c2O1 (centres unmarked) [Example 21, 2-(4-(2-(4-chloro-2-fluorophenyl)-2-methylbenzo[d][1, 3]dioxol-4-yl)-2,6-difluorobenzyl)-3-((1-(fluoromethyl)cyclo-propyl)methyl)-3H-imidazo[4,5-b]pyridine-5-carboxylic acid] |

| SMILES | EC50 (GLP-1R) [nM] | Predicted Hepatic Clearance (Pred. Cl.) [1] [mL/min/kg] |
| --- | --- | --- |
| COCCn1c(Cc2c(F)cc(-c3cccc4c3OC(C)(c3ccc(C#N)s3)O4)cc2F)nc2ccc(C(=O)O)cc21 (centres unmarked) [Example 11, 2-(4-(2-(5-cyanothiophen-2-yl)-2-methylbenzo[d][1, 3]dioxol-4-yl)-2,6-difluorobenzyl)-1-(2-methoxyethyl)-1H-benzo[d]imidazole-6-carboxylic acid] | 34 | 7.17 |
| CC1(c2ccc(Cl)cc2F)Oc2cccc(-c3cc(F)c(Cc4nc5ccc(C(=O)O)cc5n4C[C@@H]4CCO4)c(C#N)c3)c2O1 (stereo partly drawn) [Example 18, 2-(4-(2-(4-chloro-2-fluorophenyl)-2-methylbenzo[d][1, 3]dioxol-4-yl)-2-cyano-6-fluorobenzyl)-1-(((S)-oxetan-2-yl)methyl)-1H-benzo[d]imidazole-6-carboxylic acid] | 0.14 | 8 |
| COCCn1c(Cc2c(F)cc(-c3cccc4c3OC(C)(c3ccc(Cl)cc3F)O4)cc2F)nc2ccc(C(=O)O)cc21 (centres unmarked) [Example 19, 2-(4-(2-(4-chloro-2-fluorophenyl)-2-methylbenzo[d][1, 3]dioxol-4-yl)-2,6-difluorobenzyl)-1-(2-methoxyethyl)-1H-benzo[d]imidazole-6-carboxylic acid] | 0.97 | 2.5 |
| CC1(c2ccc(Cl)cc2F)Oc2cccc(-c3cc(F)c(Cc4nc5ccc(C(=O)O)cc5n4C[C@@H]4CCO4)c(F)c3F)c2O1 (stereo partly drawn) [Example 20, 2-(4-(2-(4-chloro-2-fluorophenyl)-2-methylbenzo[d][1, 3]dioxol-4-yl)-2,3,6-trifluorobenzyl)-1-(((S)-oxetan-2-yl)methyl)-1H-benzo[d]imidazole-6-carboxylic acid] | 0.089 | 2.5 |
